Test results taken from US10377998B2, “CRISPR-CAS systems and methods for altering expression of gene products, structural information and inducible modular CAS enzymes” (The Broad Institute, Inc., priority 2013, dated 2019).

What was measured:
Factor VII = conditions: LNP siRNA systems containing these lipids, hepatocytes in vivo; cited from earlier work
[1] = Double nicking indel formation with sgRNA pairs; assay type: cell-based; conditions: substitution of Cas9n in double nicking, eukaryotic system
Excerpt: Aspects of the invention relate to the expression of the gene product being decreased or a template polynucleotide being further introduced into the DNA molecule encoding the gene product or an intervening sequence being excised precisely by allowing the two 5′ overhangs to reanneal and ligate or the activity or function of the gene product being altered or the expression of the gene product being increased. In an embodiment of the invention, the gene product is a protein. Only sgRNA pairs creating 5′ overhangs with less than 8 bp overlap between the guide sequences (offset greater than −8 bp) were able to mediate detectable indel formation. […] Nonetheless, a pair of sgRNAs that will generate a 5′ overhang with Cas9n should in principle generate the corresponding 3′ overhang instead, and double nicking. […] Accordingly, in some embodiments, a recombination template is also provided. A recombination template may be a component of another vector as described herein, contained in a separate vector, or provided as a separate polynucleotide. In some embodiments, a recombination template is designed to serve as a template in homologous recombination, such as within or near a target sequence nicked or cleaved by a CRISPR enzyme as a part of a CRISPR complex. […]

Row | Molecule | gene silencing potency series (Factor VII) | indel formation with sgRNA pair [1]
1 | 1,2-dilinoleyloxy-keto-N,N-dimethyl-3-aminopropane [DLinKDMA] | DLinKC2-DMA>DLinKDMA>DLinDMA>>DLinDAP | 
2 | CCCCC/C=C\C/C=C\CCCCCCCC(=O)OCC(CN(C)C)OC(=O)CCCCCCC/C=C\C/C=C\CCCCC (centres unmarked) [DLinDAP, 1,2-dilineoyl-3-dimethylammonium-propane] | DLinKC2-DMA>DLinKDMA>DLinDMA>>DLinDAP | 
3 | CCCCC/C=C\C/C=C\CCCCCCCCOCC(CN(C)C)OCCCCCCCC/C=C\C/C=C\CCCCC (centres unmarked) [DLinDMA, 1,2-dilinoleyloxy-3-N,N-dimethylaminopropane] | DLinKC2-DMA>DLinKDMA>DLinDMA>>DLinDAP | 
4 | CCCCC/C=C\C/C=C\CCCCCCCCC1(CCCCCCCC/C=C\C/C=C\CCCCC)OCC(CCN(C)C)O1 (centres unmarked) [DLinKC2-DMA, 1,2-dilinoleyl-4-(2-dimethylaminoethyl)-[1,3]-dioxolane] | DLinKC2-DMA>DLinKDMA>DLinDMA>>DLinDAP | 
5 | Cas9H840A: Cas9 with H840A mutation |  | no indel formation is observed
